Data reported in patent US11034913B2, “Metal working fluid” (Henkel AG & Co. KGaA, priority 2015, dated 2021).
Entries after “also recorded” stand apart in the source; their conditions may differ.

Test system: mixed Gram-negative bacteria
Assay: Minimum inhibitory concentration testing (biostat candidate screening, Phase 1 and Phase 2; dip slide counts)
Type: cell-based
Conditions: for Differential Value Scores, Average / Differential Value Scores, Round 1 / Differential Value Scores, Round 2 / Differential Value Scores, Round 3: Phase 1, scale 0-6, 3 = matches DCHA standard; for Differential Value Scores, Average: average of Rounds 1-3; for Differential Value Scores, Round 1 / Differential Value Scores, Round 2 / Differential Value Scores, Round 3: log bacterial counts at 24 and 48 h versus DCHA standard, higher = better; for Biostatic efficacy regarding Gram-negative bacteria compared with the DCHA standard: result in words, 3 wt. % amine in metal working fluid
[1] = Phase 2, Round 1, dilution 3 %, 24 hours
[2] = Phase 2, Round 1, dilution 3 %, 48 hours
[3] = Phase 2, Round 1, dilution 4 %, 24 hours
[4] = Phase 2, Round 1, dilution 4 %, 48 hours
[5] = Phase 2, Round 1, dilution 5 %, 24 hours
[6] = Phase 2, Round 1, dilution 5 %, 48 hours
[7] = Phase 2, Round 2, dilution 4 %, 24 hours
[8] = Phase 2, Round 2, dilution 4 %, 48 hours
[9] = Phase 2, Round 2, dilution 5 %, 24 hours
[10] = Phase 2, Round 2, dilution 5 %, 48 hours
[11] = Phase 2, Round 2, dilution 6 %, 24 hours
[12] = Phase 2, Round 2, dilution 6 %, 48 hours

| Structure (SMILES) | Amount of new Gram-negative bacteria colonies [2] | Amount of new Gram-negative bacteria colonies [8] | Amount of new Gram-negative bacteria colonies [10] | Amount of new Gram-negative bacteria colonies [12] | Differential Value Scores, Average | Differential Value Scores, Round 1 | Differential Value Scores, Round 2 | Differential Value Scores, Round 3 | other results |
| --- | --- | --- | --- | --- | --- | --- | --- | --- | --- |
| CN(C)CCCN(C)CCCN(C)C [C13, N,N,N′,N″,N″-pentamethyl-dipropylenetriamine] | 10^7 | 10^7 | 10^7 | 10^7 | – | – | – | – | Amount of new Gram-negative bacteria colonies [1]: 10^7; Amount of new Gram-negative bacteria colonies [3]: 10^7; Amount of new Gram-negative bacteria colonies [4]: 10^7; Amount of new Gram-negative bacteria colonies [5]: 10^3; Amount of new Gram-negative bacteria colonies [6]: 10^7; Amount of new Gram-negative bacteria colonies [7]: 10^2; Amount of new Gram-negative bacteria colonies [9]: 10^2; Amount of new Gram-negative bacteria colonies [11]: 10^2 |
| CCCCC(CC)CN (stereo not shown) [Example 2, 2-ethylhexylamine] | – | – | – | – | 4.3 | 4 | 4.5 | 4.5 | – |
| CCCCCCCCN [Example 6, Octylamine] | – | – | – | – | – | – | – | – | Biostatic efficacy regarding Gram-negative bacteria compared with the DCHA standard: surpassed the DCHA standard; also recorded: better biostatic performance than the DCHA control |
| NCCN(CCN)CCN [Example 7, Tris(2-aminoethyl)amine] | 10^3 | 10^2 | 10^2 | 10^2 | – | – | – | – | Biostatic efficacy regarding Gram-negative bacteria compared with the DCHA standard: surpassed the DCHA standard |
| CC(C)CCCC(C)N (stereo not shown) [Example 1, 1,5-dimethylhexylamine] | – | – | – | – | 4.3 | 4.5 | 4 | 4.5 | – |
| NC1CCC(N)CC1 (stereo not shown) [Example 4, 1,4-cyclohexanediamine] | – | – | – | – | 3.7 | 4 | 4.5 | 2.5 | Biostatic efficacy regarding Gram-negative bacteria compared with the DCHA standard: better biostatic performance than the DCHA standard |
| CCCCCN [Comparative Example C4, Amylamine] | – | – | – | – | 1.7 | 1.5 | 2.5 | 1 | Biostatic efficacy regarding Gram-negative bacteria compared with the DCHA standard: worse biostatic capabilities than the DCHA control |
| CN(C)CCN(C)CCN(C)C [C14, Pentamethyldiethylene triamine] | 10^7 | 10^7 | 10^7 | 10^7 | – | – | – | – | Amount of new Gram-negative bacteria colonies [1]: 10^7; Amount of new Gram-negative bacteria colonies [3]: 10^7; Amount of new Gram-negative bacteria colonies [4]: 10^7; Amount of new Gram-negative bacteria colonies [5]: 10^7; Amount of new Gram-negative bacteria colonies [6]: 10^7; Amount of new Gram-negative bacteria colonies [7]: 10^3; Amount of new Gram-negative bacteria colonies [9]: 10^2; Amount of new Gram-negative bacteria colonies [11]: 10^3 |
| CC1CCCCC1N (stereo not shown) [C5, 2-methylcyclohexylamine] | – | – | – | – | 1.7 | 1 | 2.5 | 1.5 | – |
| CCNC1CCCCC1 [C6, N-ethylcyclohexylamine] | – | – | – | – | 1.7 | 1.5 | 2.5 | 1 | – |
| NC1CCCCC1 [C7, Cyclohexylamine] | – | – | – | – | 1.5 | 1 | 2.5 | 1 | – |
| CCC(N)CCN (stereo not shown) [C10, 1,3-pentanediamine] | 10^7 | 10^7 | 10^7 | 10^7 | – | – | – | – | Amount of new Gram-negative bacteria colonies [1]: 10^7; Amount of new Gram-negative bacteria colonies [3]: 10^5; Amount of new Gram-negative bacteria colonies [4]: 10^7; Amount of new Gram-negative bacteria colonies [5]: 10^3; Amount of new Gram-negative bacteria colonies [6]: 10^7; Amount of new Gram-negative bacteria colonies [7]: 10^2; Amount of new Gram-negative bacteria colonies [9]: 10^2; Amount of new Gram-negative bacteria colonies [11]: 10^2 |
| NCCCCCCN [Comparative Example C1, 1,6-diaminohexane] | – | – | – | – | 2.5 | 2 | 4 | 1.5 | – |
| CCCCCCCN [Example 3, Heptylamine] | – | – | – | – | 4.2 | 4 | 4 | 4.5 | Biostatic efficacy regarding Gram-negative bacteria compared with the DCHA standard: better biostatic performance than the DCHA control |
| CCCCC(CC)CN(CC(CC)CCCC)CC(CC)CCCC (stereo not shown) [C9, Tris(2-ethylhexylamine)] | 10^7 | 10^7 | 10^7 | 10^7 | – | – | – | – | Amount of new Gram-negative bacteria colonies [1]: 10^7; Amount of new Gram-negative bacteria colonies [3]: 10^5; Amount of new Gram-negative bacteria colonies [4]: 10^7; Amount of new Gram-negative bacteria colonies [5]: 10^4; Amount of new Gram-negative bacteria colonies [6]: 10^7; Amount of new Gram-negative bacteria colonies [7]: 10^3; Amount of new Gram-negative bacteria colonies [9]: 10^2; Amount of new Gram-negative bacteria colonies [11]: 10^2 |
| NC1CCCCC1N (stereo not shown) [C3, 1,2-cyclohexanediamine] | – | – | – | – | 2.3 | 2 | 4 | 1 | Biostatic efficacy regarding Gram-negative bacteria compared with the DCHA standard (listed as Comparative Example 3): performed below the DCHA standard |
| NC1CCC(CC2CCC(N)CC2)CC1 (stereo not shown) [C11, 4,4′-methylene bis(cyclohexylamine)] | 10^7 | 10^7 | 10^7 | 10^7 | – | – | – | – | Amount of new Gram-negative bacteria colonies [1]: 10^7; Amount of new Gram-negative bacteria colonies [3]: 10^5; Amount of new Gram-negative bacteria colonies [4]: 10^7; Amount of new Gram-negative bacteria colonies [5]: 10^5; Amount of new Gram-negative bacteria colonies [6]: 10^7; Amount of new Gram-negative bacteria colonies [7]: 10^2; Amount of new Gram-negative bacteria colonies [9]: 10^2; Amount of new Gram-negative bacteria colonies [11]: 10^2 |
| NCC1CCCC(CN)C1 (stereo not shown) [C2, 1,3-bis(aminomethyl)cyclohexane] | – | – | – | – | 2.5 | 2.5 | 4 | 1 | – |
| NCC1CCCCC1 [C8, Aminomethylcyclohexane] | – | – | – | – | 1.5 | 1 | 2.5 | 1 | – |
